Source: patent US20210113586A1, “NEW USE AND METHODS OF MODULATING IMMUNE RESPONSES” (DIAMYD MEDICAL AB, priority 2018, published 2021)

Assays:
Assay type in all cases: cell-based, human
responder CD4+ T cells [1] = assay: Proliferation of anti-CD3 stimulated GABA responder CD4+ T cells from ND individuals; conditions: for effect of agonist on proliferation: 100 nM, FIG. 3f
Description: (§1) Peripheral Blood Mononuclear cells (PBMCs) are isolated from blood from donors diagnosed with Type-1 diabetes and healthy controls. Alternatively, CD4-positive cells (T-cells) are further isolated from PBMCs by e.g. MACS beads, FACS or similar technology. […] A reasonable replication, such as 3 cultures of each condition, is performed. A normalized proliferation value for each culture is then calculated by a standard proliferation measurement method, such as by CFSE staining or radioactive thymidine incorporation (requiring additional factors be added during culture) or by staining for proliferation markers.
(§2) In the FIG. 1, the proliferation of cells retrieved from 13 T1D subjects and 15 healthy controls were inspected. […] A normalized proliferation index was calculated for each culture.
(§3) The proliferation of freshly isolated human PBMCs or CD4^+ T cells was evaluated with MTT (3-(4,5-Dimethylthiazol-2-yl)-2,5-Diphenyltetrazolium Bromide) assay (Ring et al., 2012). Cells were suspended in complete medium (RPMI 1640 supplemented with 2 mM glutamine, 25 mM HEPES, 10% heat inactivated fetal bovine serum, 100 U/ml penicillin, 10 mg/ml streptomycin, 5 mM R-mercaptoethanol) in a concentration 1 million cells per milliliter. The assay was performed in 96-well plates in duplicates or triplicates, where each well was pre-coated with 3 μg/ml anti-CD3 antibody for 3-5 h at 37° C. Each well was loaded with 100,000 cells. Drugs were added to the wells at the relevant concentrations. The plate was incubated for 68 h at 37° C. (95% O2, 5% CO2) and then, a media-soluble tetrazolium dye MTT was added to a final concentration of 1 mM after which the plate was incubated for additional 4 h. The plate was then centrifuged at 2,000 RPM for 10 min to pellet the insoluble purple formazan crystals. The supernatant culture media was collected, stored at −80° C. and used for analysis of cytokines using the multiplex proximity extension assay (PEA). The formazan crystal pellet was dissolved in DMSO and the plate was read within 10 min using a Multiskan MS plate reader (Labsystems) at 550 nm. The optical density value was used as the proliferation index value. Drugs were purchased from Sigma-Aldrich or Tocris (Bristol, UK).

responder CD4+ T cells [2] = assay: Multiplex PEA of cytokines released into culture medium by responder CD4+ T cells; conditions: GABA plus 100 μM picrotoxin
Description: as §3
Plasma samples, and culture media samples that were collected from plate wells at the end of the proliferation assay, were analyzed by multiplex PEA with an Olink Inflammation […] panel, targeting 92 proteins related to inflammation (Olink Proteomics, Uppsala, Sweden) as previously described (Edvinsson et al., 2017, Assarsson et al., 2014, Larsson et al., 2015, Larssen et al., 2017). Briefly, 1 μl of sample (plasma samples or cell culture media samples) or negative control was mixed with 3 μl probe solution containing a set of 92 paires DNA-oligonucleotide-conjugated antibodies. Upon recognition of a target protein by a pair of probes, the DNA oligonucletodies on the antibodies are brought in proximity and hybridize to each other, followed by enzymatic DNA polymerization to form a new DNA molecule. The newly formed DNA molecule is then amplified and quantified using a microfluidic real-time qPCR, BioMark™ HD (Fluidigm, South San Francisco, Calif., USA). The generated quantification cycle (Cq) values are normalized against spiked-in controls to convert Cq values to Normalized Protein eXpression (NPX) value on log2 scale. NPX is an arbitrary unit, which is positively correlated to protein concentration. These NPX data were then converted to linear data, using the formula 2^NPX, prior to further statistical analysis. Limit of detection (LOD) for each protein was defined as three standard deviations above the background. Proteins with levels below LOD were excluded from further data analysis.

[3] = test system: PBMCs from T1D individuals; assay: Proliferation of anti-CD3 stimulated PBMCs from T1D donors; conditions: GABA plus picrotoxin
Description: as §1, §2
as §3, with “The optical density value was used as the proliferation index value. Drugs were purchased from Sigma-Aldrich or Tocris (Bristol, UK).” left out

GABAA receptors = assay: Patch-clamp single-channel current recording in CD4+ T cells; conditions: picrotoxin 100 μM; FIG. 3i
Description: GABA-activated currents were recorded by the patch-clamp technique as previously described (Bjurstom et al., 2008, Jin et al., 2011a). Extracellular recording solution contained (in mM): 145 NaCl, 3 KCl, 1 CsCl, 1 CaCl2, 1 MgCl2, 10 glucose and 10 TES; the pH was adjusted to 7.4 with NaOH. To record in the whole-cell configuration, the pipette solution contained (in mM): 136 CsCl, 20 KCl, 1 MgCl2, 3 MgATP and 10 TES; pH was adjusted to 7.3 with CsOH. The pipette solution for the cell-attached configuration contained (in mM): 69 NaCl, 5 KCl, 75 CsCl, 1 CaCl2, 1 MgCl2 and 10 TES; pH was adjusted to 7.4 with NaOH. […] The pipette potential (Vp) was −80 mV (hyperpolarizing) in the whole-cell configuration and −60 mV (depolarizing) in the cell-attached configuration.

[4] = FIG. 5b-c legend, GABA concentration and cell group not given

`NC/C=C/C(=O)O` [TACA] was tested, and the “effect of agonist on proliferation” value (responder CD4+ T cells [1]) was “inhibited the proliferation similar to GABA”.
With `CCOC(OCC)P(=O)(O)CCCNCc1ccc(Cl)c(Cl)c1` [CGP52432] the “effect of antagonist on proliferation” value (responder CD4+ T cells [1]; 50 μM, FIG. 3e) was “ineffective”.
For `NCC(CC(=O)O)c1ccc(Cl)cc1` (stereo not shown) [baclofen], the “effect of agonist on proliferation” value (responder CD4+ T cells [1]) was “ineffective”.
In the case of picrotoxin [reference compound], the “CCL19, 2^NPX normalized to controls, mean and SEM” value (responder CD4+ T cells [2]; [4]) was 1.72±0.74, the “CCL20, 2^NPX normalized to controls, mean and SEM” value (responder CD4+ T cells [2]; [4]) was 1.43±0.51 and the “CXCL11, 2^NPX normalized to controls, mean and SEM” value (responder CD4+ T cells [2]; [4]) was 1.55±0.51. The “effect on GABA inhibition of cytokine release” value (responder CD4+ T cells [2]; FIG. 5b, c) was “reversed”, the “effect on GABA-reduced proliferation” value ([3]; Example 1, FIG. 1D) was “reversed” and the “effect on GABA inhibition of proliferation” value ([3]; Example 2, FIG. 3b) was “reversed”. The “effect on GABA-activated single-channel currents” value (GABAA receptors) was “blocked”, the “effect on GABA-reduced proliferation” value (responder CD4+ T cells [1]; Example 1, FIG. 1B, GABA plus picrotoxin) was “reversed” and the “effect on 500 nM GABA-induced inhibition of proliferation” value (responder CD4+ T cells [1]; picrotoxin, FIG. 3e) was “partially reversed”.
For `NCc1cc(=O)[nH]o1` [muscimol], the “effect of agonist on proliferation” value (responder CD4+ T cells [1]) was “inhibited the proliferation similar to GABA”.
